Measured values: ChEMBL document CHEMBL5465560, “Selectivity Literature for EUbOPEN Chemogenomic Library” (2024)

Tests used:
[1] = biological target: Tyrosine-protein kinase Fer (Homo sapiens) (UniProt P16591); details: at 10 µM
[2] = biological target: Dual specificity tyrosine-phosphorylation-regulated kinase 1A (Homo sapiens, UniProt Q13627); assay: Selectivity interaction (Kinase panel (Invitrogen)) EUB0000639a DYRK1A; details: at 200 nM
[3] = biological target: T1, Serine/threonine-protein kinase D1 (Homo sapiens) (UniProt Q15139); assay: Selectivity interaction (KinomeScan (DiscoverX)) EUB0000092b PRKD1; details: at 10 µM
T1 sequence (whole entry): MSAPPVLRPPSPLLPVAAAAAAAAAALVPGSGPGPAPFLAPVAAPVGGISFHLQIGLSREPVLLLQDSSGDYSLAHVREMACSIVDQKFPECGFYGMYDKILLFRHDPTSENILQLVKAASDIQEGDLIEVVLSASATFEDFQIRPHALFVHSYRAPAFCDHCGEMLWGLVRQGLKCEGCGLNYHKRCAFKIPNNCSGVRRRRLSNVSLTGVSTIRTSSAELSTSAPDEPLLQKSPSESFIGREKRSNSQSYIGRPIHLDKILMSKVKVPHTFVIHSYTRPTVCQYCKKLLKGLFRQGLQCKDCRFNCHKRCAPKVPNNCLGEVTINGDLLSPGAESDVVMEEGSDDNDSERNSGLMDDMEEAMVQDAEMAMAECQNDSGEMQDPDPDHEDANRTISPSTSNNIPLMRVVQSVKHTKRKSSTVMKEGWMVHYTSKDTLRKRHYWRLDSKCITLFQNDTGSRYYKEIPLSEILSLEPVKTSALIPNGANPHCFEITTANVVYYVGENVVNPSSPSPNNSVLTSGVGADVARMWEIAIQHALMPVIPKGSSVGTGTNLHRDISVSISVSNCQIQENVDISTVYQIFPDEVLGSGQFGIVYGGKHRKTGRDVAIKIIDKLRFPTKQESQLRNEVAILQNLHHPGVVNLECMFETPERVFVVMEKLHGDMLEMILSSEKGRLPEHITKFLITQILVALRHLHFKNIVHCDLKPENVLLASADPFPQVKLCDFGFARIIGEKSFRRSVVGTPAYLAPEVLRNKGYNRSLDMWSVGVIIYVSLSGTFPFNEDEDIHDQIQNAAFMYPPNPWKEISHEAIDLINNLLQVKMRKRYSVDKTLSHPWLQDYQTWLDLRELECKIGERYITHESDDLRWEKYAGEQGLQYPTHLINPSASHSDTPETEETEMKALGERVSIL

[4] = biological target: Epithelial discoidin domain-containing receptor 1 (Homo sapiens) (UniProt Q08345); assay: Selectivity interaction (KinomeScan (DiscoverX)) EUB0001619a DDR1; details: at 1 µM
[5] = biological target: T2, Myotonin-protein kinase (Homo sapiens) (UniProt Q09013); assay: Selectivity interaction (KinomeScan (DiscoverX)) EUB0001619a DMPK; details: at 1 µM
T2 sequence (whole entry): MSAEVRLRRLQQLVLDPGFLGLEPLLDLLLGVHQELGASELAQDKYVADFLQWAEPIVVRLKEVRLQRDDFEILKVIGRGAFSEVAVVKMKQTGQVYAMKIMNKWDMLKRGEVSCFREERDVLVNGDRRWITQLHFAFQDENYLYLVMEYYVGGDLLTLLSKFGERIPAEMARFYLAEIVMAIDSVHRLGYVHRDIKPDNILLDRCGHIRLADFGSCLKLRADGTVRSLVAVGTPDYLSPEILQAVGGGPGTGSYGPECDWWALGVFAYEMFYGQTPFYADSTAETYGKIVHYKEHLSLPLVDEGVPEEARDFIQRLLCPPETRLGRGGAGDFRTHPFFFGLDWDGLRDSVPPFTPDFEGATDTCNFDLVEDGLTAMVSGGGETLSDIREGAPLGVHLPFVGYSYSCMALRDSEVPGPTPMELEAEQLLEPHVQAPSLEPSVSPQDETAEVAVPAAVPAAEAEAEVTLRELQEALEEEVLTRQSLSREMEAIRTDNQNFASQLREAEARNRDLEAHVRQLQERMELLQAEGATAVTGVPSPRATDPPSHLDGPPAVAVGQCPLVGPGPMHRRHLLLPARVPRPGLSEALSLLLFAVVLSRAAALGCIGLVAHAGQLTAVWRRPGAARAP

[6] = biological target: Serine/threonine-protein kinase PAK 2 (Homo sapiens) (UniProt Q13177); assay: Selectivity interaction (KinomeScan (DiscoverX)) EUB0001619a PAK2; details: at 1 µM
[7] = biological target: 1-phosphatidylinositol 3-phosphate 5-kinase (Homo sapiens) (UniProt Q9Y2I7); assay: Selectivity interaction (ActivX KiNativ screen (ex vivo kinase selectivity in human PBMCs)) EUB0001619a PIKFYVE; format: cell-based; details: PBMC, at 1 µM
Insulin receptor = Insulin receptor (Homo sapiens, UniProt P06213); assay: Selectivity interaction (KinomeScan (DiscoverX)) EUB0000655a INSR; details: at 10 µM
[8] = biological target: T3, Mitogen-activated protein kinase kinase kinase 2 (Homo sapiens) (UniProt Q9Y2U5); assay: Selectivity interaction (KinomeScan (DiscoverX)) EUB0000655a MAP3K2; details: at 10 µM
T3 sequence (whole entry): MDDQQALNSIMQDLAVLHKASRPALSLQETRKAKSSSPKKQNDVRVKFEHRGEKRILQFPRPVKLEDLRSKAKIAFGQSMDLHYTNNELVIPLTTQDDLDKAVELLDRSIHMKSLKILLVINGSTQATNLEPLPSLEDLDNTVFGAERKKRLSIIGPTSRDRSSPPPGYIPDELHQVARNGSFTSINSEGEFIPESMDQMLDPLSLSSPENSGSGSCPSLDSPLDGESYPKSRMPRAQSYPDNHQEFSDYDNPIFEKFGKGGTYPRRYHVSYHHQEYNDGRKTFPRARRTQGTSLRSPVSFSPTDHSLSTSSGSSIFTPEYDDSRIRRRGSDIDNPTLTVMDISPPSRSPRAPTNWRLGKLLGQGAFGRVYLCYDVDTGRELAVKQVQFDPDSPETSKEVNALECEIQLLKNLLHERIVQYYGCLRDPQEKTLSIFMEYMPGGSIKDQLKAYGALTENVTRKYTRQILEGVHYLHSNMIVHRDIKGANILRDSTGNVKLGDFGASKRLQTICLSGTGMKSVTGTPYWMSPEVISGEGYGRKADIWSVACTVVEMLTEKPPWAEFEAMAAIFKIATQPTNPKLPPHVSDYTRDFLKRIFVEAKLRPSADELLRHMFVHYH

[9] = biological target: Mitogen-activated protein kinase kinase kinase 4 (Homo sapiens) (UniProt Q9Y6R4); assay: Selectivity interaction (KinomeScan (DiscoverX)) EUB0000655a MAP3K4; details: at 10 µM
[10] = biological target: Mitogen-activated protein kinase kinase kinase 9 (Homo sapiens) (UniProt P80192); assay: Selectivity interaction (KinomeScan (DiscoverX)) EUB0000655a MAP3K9; details: at 10 µM
[11] = biological target: Mitogen-activated protein kinase kinase kinase 10 (Homo sapiens) (UniProt Q02779); assay: Selectivity interaction (KinomeScan (DiscoverX)) EUB0000607a MAP3K10; details: at 10 µM
[12] = biological target: G protein-coupled receptor kinase 6 (Homo sapiens) (UniProt P43250); assay: Selectivity interaction (ProQinase) EUB0000171b GRK6
Sequence of G protein-coupled receptor kinase 6 (Homo sapiens) (P43250 whole entry, looked up): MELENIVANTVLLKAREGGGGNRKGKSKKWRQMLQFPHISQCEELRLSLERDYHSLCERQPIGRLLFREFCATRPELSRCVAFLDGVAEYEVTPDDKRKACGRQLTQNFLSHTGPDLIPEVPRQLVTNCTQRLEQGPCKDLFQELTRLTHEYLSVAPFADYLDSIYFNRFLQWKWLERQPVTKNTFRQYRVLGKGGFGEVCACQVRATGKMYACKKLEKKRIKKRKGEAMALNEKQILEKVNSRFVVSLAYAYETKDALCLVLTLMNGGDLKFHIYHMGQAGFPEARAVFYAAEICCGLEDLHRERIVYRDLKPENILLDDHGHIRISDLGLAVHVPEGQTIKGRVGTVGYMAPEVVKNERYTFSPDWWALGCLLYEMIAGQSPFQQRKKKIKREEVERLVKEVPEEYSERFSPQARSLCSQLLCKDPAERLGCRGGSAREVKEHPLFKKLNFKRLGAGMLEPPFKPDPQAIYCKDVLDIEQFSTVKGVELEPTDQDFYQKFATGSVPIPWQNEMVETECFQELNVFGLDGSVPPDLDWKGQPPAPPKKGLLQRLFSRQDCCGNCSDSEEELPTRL

Sequence of Epithelial discoidin domain-containing receptor 1 (Homo sapiens) (Q08345 whole entry, the tested form may be a part): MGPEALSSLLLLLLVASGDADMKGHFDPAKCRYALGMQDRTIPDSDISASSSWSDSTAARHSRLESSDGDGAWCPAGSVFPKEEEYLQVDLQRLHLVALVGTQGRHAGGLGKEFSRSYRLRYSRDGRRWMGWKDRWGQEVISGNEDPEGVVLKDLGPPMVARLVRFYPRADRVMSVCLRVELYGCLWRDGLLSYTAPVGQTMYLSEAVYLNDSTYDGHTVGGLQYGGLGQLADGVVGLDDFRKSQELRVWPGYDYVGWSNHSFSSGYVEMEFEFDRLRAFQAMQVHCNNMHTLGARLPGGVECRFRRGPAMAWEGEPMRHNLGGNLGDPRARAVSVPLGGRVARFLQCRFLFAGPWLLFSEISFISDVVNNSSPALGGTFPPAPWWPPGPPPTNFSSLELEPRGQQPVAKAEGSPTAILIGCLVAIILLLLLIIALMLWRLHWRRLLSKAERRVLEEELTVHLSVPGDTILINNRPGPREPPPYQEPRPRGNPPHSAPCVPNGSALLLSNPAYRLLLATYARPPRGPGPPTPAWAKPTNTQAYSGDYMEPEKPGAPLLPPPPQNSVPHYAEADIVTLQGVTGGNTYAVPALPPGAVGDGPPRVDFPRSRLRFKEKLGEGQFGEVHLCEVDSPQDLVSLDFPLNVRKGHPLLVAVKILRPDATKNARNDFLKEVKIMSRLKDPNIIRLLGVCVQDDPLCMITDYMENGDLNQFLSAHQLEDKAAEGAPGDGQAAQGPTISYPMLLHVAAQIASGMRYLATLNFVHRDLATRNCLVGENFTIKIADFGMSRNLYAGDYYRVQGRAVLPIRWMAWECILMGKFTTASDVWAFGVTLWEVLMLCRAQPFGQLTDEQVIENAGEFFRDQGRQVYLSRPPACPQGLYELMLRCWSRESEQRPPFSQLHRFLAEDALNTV
Sequence of Mitogen-activated protein kinase kinase kinase 9 (Homo sapiens) (P80192 whole entry, looked up): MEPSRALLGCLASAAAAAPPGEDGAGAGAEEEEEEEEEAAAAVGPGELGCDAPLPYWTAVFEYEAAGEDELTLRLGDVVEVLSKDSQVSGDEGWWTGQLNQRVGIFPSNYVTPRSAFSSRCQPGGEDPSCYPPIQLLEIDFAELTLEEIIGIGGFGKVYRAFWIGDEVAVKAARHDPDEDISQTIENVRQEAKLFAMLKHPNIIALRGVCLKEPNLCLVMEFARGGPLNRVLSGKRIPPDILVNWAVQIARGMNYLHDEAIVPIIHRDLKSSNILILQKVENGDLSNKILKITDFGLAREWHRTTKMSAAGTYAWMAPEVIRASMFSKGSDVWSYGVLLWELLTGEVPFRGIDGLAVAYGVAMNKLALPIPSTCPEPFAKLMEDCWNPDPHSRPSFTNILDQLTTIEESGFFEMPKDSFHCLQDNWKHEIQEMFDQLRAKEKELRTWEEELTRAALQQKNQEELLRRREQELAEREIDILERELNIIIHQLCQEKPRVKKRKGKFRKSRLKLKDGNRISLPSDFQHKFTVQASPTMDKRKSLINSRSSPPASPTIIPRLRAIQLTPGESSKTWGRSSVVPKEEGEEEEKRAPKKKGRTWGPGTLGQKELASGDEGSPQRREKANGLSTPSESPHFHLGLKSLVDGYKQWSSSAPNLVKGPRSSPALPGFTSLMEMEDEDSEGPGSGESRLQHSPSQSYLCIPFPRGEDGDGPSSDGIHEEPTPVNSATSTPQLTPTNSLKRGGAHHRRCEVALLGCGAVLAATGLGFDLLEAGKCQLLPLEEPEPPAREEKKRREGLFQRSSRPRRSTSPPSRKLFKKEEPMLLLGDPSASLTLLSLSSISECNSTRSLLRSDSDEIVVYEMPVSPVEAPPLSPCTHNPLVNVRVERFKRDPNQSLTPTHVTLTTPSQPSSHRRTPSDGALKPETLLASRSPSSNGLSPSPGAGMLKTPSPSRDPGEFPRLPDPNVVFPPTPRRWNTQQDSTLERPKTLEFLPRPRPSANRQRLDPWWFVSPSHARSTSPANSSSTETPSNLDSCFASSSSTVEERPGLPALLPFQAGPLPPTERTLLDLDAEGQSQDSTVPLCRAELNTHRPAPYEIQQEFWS
Sequence of 1-phosphatidylinositol 3-phosphate 5-kinase (Homo sapiens) (Q9Y2I7 whole entry): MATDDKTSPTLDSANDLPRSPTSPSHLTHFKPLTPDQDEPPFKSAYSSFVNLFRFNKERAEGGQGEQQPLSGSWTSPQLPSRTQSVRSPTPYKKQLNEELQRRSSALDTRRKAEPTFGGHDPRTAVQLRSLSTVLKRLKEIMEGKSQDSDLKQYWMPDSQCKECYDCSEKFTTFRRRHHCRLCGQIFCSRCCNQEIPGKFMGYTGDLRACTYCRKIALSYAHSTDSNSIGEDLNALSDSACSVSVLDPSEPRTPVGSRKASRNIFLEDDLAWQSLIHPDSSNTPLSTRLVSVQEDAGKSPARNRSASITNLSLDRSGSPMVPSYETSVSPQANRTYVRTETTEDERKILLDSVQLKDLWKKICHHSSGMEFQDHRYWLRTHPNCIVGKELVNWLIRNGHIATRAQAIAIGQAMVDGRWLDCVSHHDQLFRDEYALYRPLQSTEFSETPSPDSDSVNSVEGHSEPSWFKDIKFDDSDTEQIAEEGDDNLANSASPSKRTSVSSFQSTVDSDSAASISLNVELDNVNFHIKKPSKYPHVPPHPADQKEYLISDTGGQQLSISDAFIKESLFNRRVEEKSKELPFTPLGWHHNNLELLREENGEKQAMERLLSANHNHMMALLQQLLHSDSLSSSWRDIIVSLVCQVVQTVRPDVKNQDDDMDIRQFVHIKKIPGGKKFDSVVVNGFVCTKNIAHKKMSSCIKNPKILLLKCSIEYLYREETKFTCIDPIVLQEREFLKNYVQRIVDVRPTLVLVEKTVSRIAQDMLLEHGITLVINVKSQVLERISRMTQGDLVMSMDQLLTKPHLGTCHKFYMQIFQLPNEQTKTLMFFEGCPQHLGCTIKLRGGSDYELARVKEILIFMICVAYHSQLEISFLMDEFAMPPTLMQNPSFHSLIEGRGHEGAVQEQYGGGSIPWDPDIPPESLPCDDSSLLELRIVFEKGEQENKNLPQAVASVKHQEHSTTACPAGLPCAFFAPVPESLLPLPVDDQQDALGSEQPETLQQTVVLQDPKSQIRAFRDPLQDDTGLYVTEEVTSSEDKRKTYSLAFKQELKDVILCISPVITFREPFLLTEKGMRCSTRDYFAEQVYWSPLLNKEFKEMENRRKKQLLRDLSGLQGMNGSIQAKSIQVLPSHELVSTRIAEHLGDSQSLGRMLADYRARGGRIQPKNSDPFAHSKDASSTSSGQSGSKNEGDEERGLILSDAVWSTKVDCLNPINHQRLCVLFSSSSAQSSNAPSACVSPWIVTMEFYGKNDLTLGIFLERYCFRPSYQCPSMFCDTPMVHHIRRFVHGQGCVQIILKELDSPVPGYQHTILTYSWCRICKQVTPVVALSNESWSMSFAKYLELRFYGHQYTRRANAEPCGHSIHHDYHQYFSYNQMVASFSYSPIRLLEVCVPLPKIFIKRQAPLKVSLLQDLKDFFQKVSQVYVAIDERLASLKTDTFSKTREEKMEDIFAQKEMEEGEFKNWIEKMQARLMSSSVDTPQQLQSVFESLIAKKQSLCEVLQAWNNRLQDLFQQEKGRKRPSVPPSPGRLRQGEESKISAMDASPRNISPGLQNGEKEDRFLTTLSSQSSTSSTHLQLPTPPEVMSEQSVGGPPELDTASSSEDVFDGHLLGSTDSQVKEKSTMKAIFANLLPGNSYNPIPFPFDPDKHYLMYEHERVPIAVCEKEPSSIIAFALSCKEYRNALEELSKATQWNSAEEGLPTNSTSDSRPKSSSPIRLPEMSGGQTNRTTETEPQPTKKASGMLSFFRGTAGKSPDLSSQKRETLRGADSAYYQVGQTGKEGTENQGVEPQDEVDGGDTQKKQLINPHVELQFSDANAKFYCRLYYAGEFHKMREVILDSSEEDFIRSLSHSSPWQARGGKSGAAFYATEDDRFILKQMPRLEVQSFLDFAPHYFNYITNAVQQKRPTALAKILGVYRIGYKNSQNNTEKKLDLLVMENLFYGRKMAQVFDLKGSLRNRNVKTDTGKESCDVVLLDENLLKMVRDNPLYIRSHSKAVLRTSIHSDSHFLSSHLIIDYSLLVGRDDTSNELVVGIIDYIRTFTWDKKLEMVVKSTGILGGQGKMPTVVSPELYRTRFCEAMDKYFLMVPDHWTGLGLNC

SMILES: CCN(CC)CCCCNc1ncc2cc(-c3cc(OC)cc(OC)c3)c(NC(=O)NC(C)(C)C)nc2n1
- % of control [1]: 100%

SMILES: CC[C@@H]1[C@H](F)C(=O)N[C@@H]1COc1nccc2cc(C(N)=O)c(OC)cc12 [ZIMLOVISERTIB]
- % of inhibition [2]: 17.9%

SMILES: CCC(=O)N1CCN(c2ccc(-n3c(=O)ccc4cnc5ccc(-c6cnc7ccccc7c6)cc5c43)cc2C(F)(F)F)CC1
- % of control [3]: 99%

SMILES: N#Cc1cccc(-c2c[nH]c3ncnc(N4CCOCC4)c23)c1
- % of control [4]: 100%
- % of control [5]: 87%
- % of control [6]: 100%
- % of inhibition [7]: 22%

SMILES: CN(C)CCOc1ccc(-c2nc(-c3ccncc3)c(-c3ccc4c(c3)CC/C4=N\O)[nH]2)cc1
- % of control (Insulin receptor): 100%
- % of control [8]: 69%
- % of control [9]: 83%
- % of control [10]: 100%

SMILES: CNC(=O)Nc1ccc(-c2nc(N3CC4CCC(C3)O4)c3cnn(C4CCC5(CC4)OCCO5)c3n2)cc1
- % of control [11]: 100%

SMILES: C=CC(=O)Nc1cccc(C(=O)Nc2ccc(Nc3cc(-c4[nH]c(SC)nc4C)ccn3)cc2)c1
- % of control ([12]; at 1 µM): 88%
- % of control ([12]; at 5 µM): 90%
